In assay [1] the target is α-amylase. Nature of the assay: In vitro α-amylase inhibition assay. It is filed as biochemical. Conditions: read-out: α-Amylase activity IC50 ± SEM; mean ± SEM, triplicate; iodine starch method, pH 6.8, 50 °C, 30 minutes.
Assay [2] has as its system Escherichia coli. Nature of the assay: Antibacterial disc diffusion assay, Escherichia coli. The class given is cell-based. Conditions: for Antibacterial zone of inhibition, Escherichia coli: disc diffusion, samples 100 μM, kanamycin 10 μM, 24 hours at 37 °C. In general terms: Agar diffusion results depend on both activity and mobility in agar.
In assay [3] the test system is Staphylococcus aureus. Nature of the assay: Antibacterial disc diffusion assay, Staphylococcus aureus. The class given is cell-based. The following applies: for Antibacterial zone of inhibition, Staphylococcus aureus: disc diffusion, samples 100 μM, kanamycin 10 μM, 24 hours at 37 °C.
Assay [4] concerns Pseudomonas aeruginosa. Nature of the assay: Antibacterial disc diffusion assay, Pseudomonas aeruginosa. It is filed as cell-based. The following applies: samples 100 μM, kanamycin 10 μM, 24 hours at 37 °C.
In assay [5] the test system is Bacillus subtilis. Nature of the assay: Antibacterial disc diffusion assay, Bacillus subtilis. The class given is cell-based. Conditions: samples 100 μM, kanamycin 10 μM, 24 hours at 37 °C.
For assay [6], the system named is Candida albicans. Nature of the assay: Antifungal disc diffusion assay, Candida albicans. The class given is cell-based. Conditions: read-out: Antifungal zone of inhibition, Candida albicans.
In assay [7] the target is urease (Canavalia ensiformis, UniProt P07374). Conditions: read-out: Urease activity IC50 ± SEM; pH 8.2.
Sequence of urease (P07374 whole entry, looked up): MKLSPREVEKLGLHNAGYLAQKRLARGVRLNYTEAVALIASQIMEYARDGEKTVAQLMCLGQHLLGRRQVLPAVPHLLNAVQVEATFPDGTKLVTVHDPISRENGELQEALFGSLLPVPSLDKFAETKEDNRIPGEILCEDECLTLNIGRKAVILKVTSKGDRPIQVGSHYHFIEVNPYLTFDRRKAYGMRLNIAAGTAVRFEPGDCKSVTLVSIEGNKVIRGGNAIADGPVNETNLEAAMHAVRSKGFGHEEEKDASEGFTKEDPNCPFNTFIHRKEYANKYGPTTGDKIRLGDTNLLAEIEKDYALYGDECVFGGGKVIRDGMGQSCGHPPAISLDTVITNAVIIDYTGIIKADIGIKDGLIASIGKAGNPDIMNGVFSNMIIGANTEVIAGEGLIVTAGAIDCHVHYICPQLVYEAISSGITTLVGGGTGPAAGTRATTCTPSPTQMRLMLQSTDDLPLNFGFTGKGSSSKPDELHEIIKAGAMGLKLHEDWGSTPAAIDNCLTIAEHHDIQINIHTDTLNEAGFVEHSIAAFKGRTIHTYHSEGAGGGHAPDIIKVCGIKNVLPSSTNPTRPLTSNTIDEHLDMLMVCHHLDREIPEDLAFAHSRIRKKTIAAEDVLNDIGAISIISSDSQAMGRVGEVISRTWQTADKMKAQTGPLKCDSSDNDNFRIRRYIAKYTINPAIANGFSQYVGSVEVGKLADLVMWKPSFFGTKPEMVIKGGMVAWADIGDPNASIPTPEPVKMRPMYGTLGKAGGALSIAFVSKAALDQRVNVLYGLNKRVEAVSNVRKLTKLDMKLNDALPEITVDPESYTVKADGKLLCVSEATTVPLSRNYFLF

“Also recorded” adds a separate entry of the source.

In the case of `Cc1ccc(C(=O)N(C(=O)c2ccc(C)cc2)C(=S)N2N=C(c3ccc(F)cc3)CC2c2ccc(F)cc2)cc1` (stereo not shown) [Compound 5a, N-(3,5-Bis(4-fluorophenyl)-4,5-dihydro-1H-pyrazole-1-carbonothioyl)-4-methyl-N-(4-methylbenzoyl)benzamide], the IC50 in assay [1] worked out at 118.4 ± 0.64 µM.
The same measure, in the same setting: the result for `Cc1ccc(C(=O)N(C(=O)c2ccc(C)cc2)C(=S)N2N=C(c3ccc(F)cc3)CC2c2cccc(F)c2)cc1` (stereo not shown) [Compound 5b, N-(5-(3-Fluorophenyl)-3-(4-fluorophenyl)-4,5-dihydro-1H-pyrazole-1-carbonothioyl)-4-methyl-N-(4-methylbenzoyl)benzamide] reads 99.3 ± 0.62 µM.
`Cc1ccc(C(=O)N(C(=O)c2ccc(C)cc2)C(=S)N2N=C(c3ccccc3)CC2c2ccc(F)cc2)cc1` (stereo not shown) [Compound 5d, N-(5-(4-Fluorophenyl)-3-phenyl-4,5-dihydro-1H-pyrazole-1-carbonothioyl)-4-methyl-N-(4-methylbenzoyl)benzamide]: the IC50 in assay [1] stood at 104 ± 3.18 µM. Besides, the zone of inhibition at 100 µM stood at 7 mm in assay [2] (Escherichia coli, 24 h, read-out: Antibacterial zone of inhibition, Escherichia coli) and 10 mm in assay [3] (Staphylococcus aureus, 24 h, read-out: Antibacterial zone of inhibition, Staphylococcus aureus). Moreover, the “Antibacterial zone of inhibition, Escherichia coli” value in assay [2] is on record as “significant antibacterial activity; also recorded: excellent bacterial inhibition zone”. Moreover, the “Antibacterial zone of inhibition, Staphylococcus aureus” value in assay [3] is reported as “significant antibacterial activity; also recorded: excellent bacterial inhibition zone”.
`Cc1ccc(C(=O)N(C(=O)c2ccc(C)cc2)C(=S)N2N=C(c3ccc(Br)cc3)CC2c2ccc(F)cc2)cc1` (stereo not shown) [Compound 5e, N-(3-(4-Bromophenyl)-5-(4-fluorophenyl)-4,5-dihydro-1H-pyrazole-1-carbonothioyl)-4-methyl-N-(4-methylbenzoyl)benzamide]: the IC50 in assay [1] is 97.4 ± 1.53 µM.
Same read-out and setting: under `Cc1ccc(C(=O)N(C(=O)c2ccc(C)cc2)C(=S)N2N=C(c3ccc(Br)cc3)CC2c2cccc(F)c2)cc1` (stereo not shown) [Compound 5f, N-(3-(4-Bromophenyl)-5-(3-fluorophenyl)-4,5-dihydro-1H-pyrazole-1-carbonothioyl)-4-methyl-N-(4-methylbenzoyl)benzamide] stands 90.3 ± 1.08 µM.
Same read-out and setting: under `Cc1ccc(C(=O)N(C(=O)c2ccc(C)cc2)C(=S)N2N=C(c3ccc(Cl)cc3)CC2c2ccc(Cl)cc2)cc1` (stereo not shown) [Compound 5g, N-(3,5-Bis(4-chlorophenyl)-4,5-dihydro-1H-pyrazole-1-carbonothioyl)-4-methyl-N-(4-methylbenzoyl)benzamide] stands 131 ± 1.56 µM; under `Cc1ccc(C(=O)N(C(=O)c2ccc(C)cc2)C(=S)N2N=C(c3ccccc3)CC2c2ccc(C)cc2)cc1` (stereo not shown) [Compound 5h, 4-Methyl-N-(4-methylbenzoyl)-N-(3-phenyl-5-(p-tolyl)-4,5-dihydro-1H-pyrazole-1-carbonothioyl)benzamide], 121 ± 3.75 µM; under `Cc1ccc(C(=O)N(C(=O)c2ccc(C)cc2)C(=S)N2N=C(c3ccc(C)cc3)CC2c2ccc(F)cc2)cc1` (stereo not shown) [Compound 5i, N-(5-(4-Fluorophenyl)-3-(p-tolyl)-4,5-dihydro-1H-pyrazole-1-carbonothioyl)-4-methyl-N-(4-methylbenzoyl)benzamide], 114.6 ± 0.28 µM.
On the same count and under the same terms, the result for `Cc1ccc(C(=O)N(C(=O)c2ccc(C)cc2)C(=S)N2N=C(c3ccc(C)cc3)CC2c2ccc(Cl)cc2)cc1` (stereo not shown) [Compound 5j, N-(5-(4-Chlorophenyl)-3-(p-tolyl)-4,5-dihydro-1H-pyrazole-1-carbonothioyl)-4-methyl-N-(4-methylbenzoyl)benzamide] reads 110 ± 1.56 µM.
Take `NC[C@H]1O[C@H](O[C@H]2[C@H](O)[C@@H](O[C@H]3O[C@H](CO)[C@@H](O)[C@H](N)[C@H]3O)[C@H](N)C[C@@H]2N)[C@H](O)[C@@H](O)[C@@H]1O` [Kanamycin, reference compound]: in assay [2], the “Antibacterial zone of inhibition, Escherichia coli” value came to 16 mm. Besides, the “Antibacterial zone of inhibition, Pseudomonas aeruginosa” value in assay [4] is reported as 20 mm. Moreover, the “Antibacterial zone of inhibition, Bacillus subtilis” value in assay [5] came out at 22 mm. In addition, in assay [3], the “Antibacterial zone of inhibition, Staphylococcus aureus” value stood at 18 mm.
Consider `CN(C/C=C/C#CC(C)(C)C)Cc1cccc2ccccc12` [Terbinafine], for which, in assay [6], the zone of inhibition at 10 µM is 20 mm.
`NC(N)=S` [Thiourea]: in assay [7], the IC50 was determined as 9.8 ± 0.1 µM.

Usually IC50 stands for the concentration needed to halve the response being measured. What is called zone of inhibition is the size of the clear area around the sample on an inoculated plate.

Values taken from article PMC10759180 (RSC Advances, 2024).
